Experimental data: US5643884A, “Lupane triterpenoid derivatives” (Glycomed Incorporated, priority 1993, dated 1997)
≈ marks a conversion by molar mass, not a printed value.

What was measured:
[1] = system: arachidonic acid (AA) induced ear swelling; assay: arachidonic acid (AA), murine skin inflammation model (ear swelling); assay type: in vivo; conditions: topical, 1 mg, 90 minutes
Protocol: Arachidonic acid is known to induce an inflammatory response and the compounds were tested for their capacity to inhibit the response.
Briefly, the compounds at an appropriate concentration are dissolved in a suitable solvent, and applied to a rodent ear immediately following application of arachidonic acid (AA). A control of AA alone is run. About 90 minutes later a 6 mm disk of each ear is removed and weighed.
For comparison, betulinic acid was also tested. All compounds were dissolved at 50 mg/mL in CHCl3 :CH3 OH (1:1) and […] of each compound was applied two times to the ear, at about a 2 minute interval or the period of time it took for the solvent to evaporate from the ear, immediately following arachidonic acid (AA). A control of AA alone was run. Ninety minutes later a 6 mm disk of each ear was removed and weighed.

E-selectin = assay: cancer cell adhesion to E-selectin (E-selectin chimera binding to fixed LS174T colon carcinoma cells); assay type: cell-based; conditions: lowest concentration from serial two-fold dilutions inhibiting by 50% or more, FIGS. 3 and 4
Protocol: The mixture is rotated briskly on a rotary platform at room temperature for about 30-60 minutes. Particulate matter is removed by centrifugation, and the soluble fraction is transferred onto 96-well microtiter plates containing glutaraldehyde fixed LS174T colon carcinoma cells. This cell line is known to adhere to E-selectin. After 60 minutes at 37° C., plates are washed and E-selectin chimera bound to cells is quantified by addition of pNPP substrate in 1M diethanolamine buffer containing 0.1 mg/ml MgCl2 at pH 9.8. Plates are developed in the dark and read at 405 nm. The IC50 values are calculated and are the lowest concentrations from serial two-fold dilutions (quadruplicate wells at each concentration) which inhibits cell binding by 50% or more relative to the control.
Experiments were conducted to determine the capacity of the invention compounds to interfere with the binding of cancer cells to E-selectin. The compounds are dissolved in dimethylformamide (DMF) prior to being assayed. […] After 60 minutes at 37° C., plates are washed and E-selectin chimera bound to cells is quantified by addition of pNPP substrate in 1M diethanolamine buffer containing 0.1 mg/ml MgCl2 at pH 9.8. Plates are developed in the dark and read at 405 nm. […]

P-selectin = assay: inhibition of P-selectin binding to HL-60 cells; assay type: cell-based, human HL-60 cells; conditions: read-out: IC50, P-selectin binding to HL-60 cells; P-selectin 200 ng/ml; 4° C., 1 hour
Protocol: Certain of the invention compounds were tested for their capacity to inhibit P-selectin binding to HL-60 cells, and to a chemical known to bind to P-selectin, 2,3 sLex. The following materials and procedures were used.
P-Selectin Detection Solutions. Goat F(ab')2 anti-human IgG (Fc spec.)-biotin and streptavidin-AP were diluted 1:1000 in 1% BSA-TBS with 1 mM Ca^++. An Elisa assay was utilized to measure P-selectin binding to 2,3 sLex, and P-selectin was added at 300 ng/ml. An Elisa assay was also used to assay for the capacity of the invention compounds to inhibit HL-60 cell binding to P-selectin. HL-60 cells were used, and P-selectin was added at 200 ng/ml.
2,3 sLex was coated at 30 pmoles/well to Probind microtiter plates for Elisa. The glycolipid was added at 50 μl/well in 50% MeOH and allowed to evaporate overnight. Elisa plates and HL-60 assay plates were blocked with 5% BSA-TBS Ca^++ for more than an hour at room temperature. The plates were washed with TBS without Ca^++.
HL-60 cells were harvested by centrifugation, washed with TBS no Ca^++, counted, and the density adjusted to 2×10^6 /ml in 1% BSA-TBS Ca^++.
Briefly, the assays were conducted as follows. […] DMF solutions were added directly to 1% BSA/TBS-Ca for dilutions through 0.5 mM. Lower concentrations were made in serial two-fold dilutions in BSA-TBS. […]

ornithine decarboxylase = conditions: Yasukawa et al. 1991; cited from earlier work
5-lipoxygenase = conditions: Sotomatsu et al. 1959; Inoue et al. 1986; cited from earlier work
[2] = system: P-388 lymphocytic leukemia cells; conditions: Choi et al, Planta Medica 1988; cited from earlier work

C=C(C)[C@@H]1CC[C@]2(C(=O)O)CC[C@]3(C)[C@H](CC[C@@H]4[C@@]5(C)CC[C@H](O)C(C)(C)[C@@H]5CC[C@]43C)[C@@H]12 [betulinic acid]
% Inhibition of Swelling ([1]; first printed value of three separate experiments): ~0% | % Inhibition of Swelling ([1]; first printed value of three separate experiments, listed as Betulinic acid): 0.0% | % Inhibition of Swelling ([1]; second printed value of three separate experiments): ~12.2% | % Inhibition of Swelling ([1]; third printed value of three separate experiments): ~25.9% | IC50 (E-selectin): 60 µM | IC50 (P-selectin): ~750 µM | inhibition of ornithine decarboxylase (ornithine decarboxylase): known inhibitor of ornithine decarboxylase | inhibition of enzymes involved in leukotriene biosynthesis, including 5-lipoxygenase (5-lipoxygenase): capacity to inhibit enzymes involved in leukotriene biosynthesis, including 5-lipoxygenase

C=C(C)[C@@H]1CC[C@]2(C(=O)OC)CC[C@]3(C)[C@H](CC[C@@H]4[C@@]5(C)CC[C@H](O)C(C)(C)[C@@H]5CC[C@]43C)[C@@H]12 [betulinic acid methyl ester]
ED50 against P-388 lymphocytic leukemia cells [2]: 6.8 µg/mL (≈ 14.4 µM)

C=C(C)[C@@H]1CC[C@]2(C(=O)O)CC[C@]3(C)[C@H](CC[C@@H]4[C@@]5(C)CC[C@H](OC(C)=O)C(C)(C)[C@@H]5CC[C@]43C)[C@@H]12 [betulinic acid 3-monoacetate]
ED50 against P-388 lymphocytic leukemia cells [2]: 10.5 µg/mL (≈ 21.1 µM)
